Source: US20130261191A1, “USE OF ESSENTIAL OIL COMPOUNDS AS HISTOMONASTAT” (DSM IP ASSETS B.V., priority 2007, published 2013)

tested on: Histomonas meleagridis; assay: In vitro lethal activity (minimal lethal concentration) towards Histomonas meleagridis culture, Trypan blue vital coloration; type: cell-based; conditions: lowest dilution in which no live organisms were observed; H. meleagridis culture 10^6 parasites/ml, 39° C., anaerobic
Experimental: The in vitro activity of the several essential oil compounds was assessed using the following technique. Aliquots of 1 ml of H. meleagridis culture (10^6 parasites/ml) were incubated anaerobicaly for 24 h at 39° C. Twelve two-fold dilutions of a stock solution of each compound were prepared in 96-well U bottom plates (Prolabo, Lyon, France) in Tween 80 (Sigma, L'Isle d'Abeau, France) and added to the parasites. The initial dilution was 2% ([…]). After incubation for 24 h and 48 h, the number of live parasite in each culture was estimated by vital coloration with Trypan blue 0.4% (Gibco, BRL Life technology, Cergy Pontoise, France). The lowest dilution in which no live organisms were observed was defined as the minimal lethal concentration (MLC).

**Q.** `O=C/C=C/c1ccccc1` [cinnamaldehyde, trans-] was tested. Which “minimal lethal concentration (MLC)” value did it give?
**A.** 250 ppm

**Q.** For `Cc1ccc(C(C)C)cc1` [cymene, p-], which “minimal lethal concentration (MLC)” value is on record?
**A.** 500 ppm

**Q.** Which “minimal lethal concentration (MLC)” value does the source give for `C=CC(C)(O)CCC=C(C)CCC=C(C)C` (stereo not drawn) [nerolidol] here?
**A.** 125 ppm
